Source: US10852272B2, “Devices and methods using pore size modulation for detecting analytes in a fluid sample” (The Regents of the University of California, priority 2014, dated 2020)

Legend:
[1] = Dissolution (decrosslinking) kinetics of labile crosslinkers under the dissolution treatment (applied stimulus); assay type: physicochemical; settings: under the dissolution treatment listed per crosslinker (periodic acid, reducing agent, base or acid)
Source text: Certain properties of labile crosslinkers are described in the table below.

[2] = Half-life of DK as a function of pH; assay type: physicochemical; settings: buffer
Protocol: The half-life of DK was 0.03 days at pH 5 and 6 days at pH 7.4 (at 35° C.). To qualitatively confirm decrosslinking functionality, four solutions of tris glycine were titrated to pH values of 8.3, 7.1, 2.6 and 0.07, with the addition of hydrochloric acid. A piece of DK crosslinked PAG was placed into each of the separate solutions to assess dissolution at room temperature. Gels were periodically removed and photographs were taken to qualitatively assess how much gel remained. […] The gels soaking in 8.3 pH and 7.1 pH were not visually affected even after overnight incubation. […] Experiments were performed to study composite crosslinked PAG.

Dissolution Kinetics [1]	half-life ([2]; pH 5, 35° C.) [h]	half-life ([2]; pH 7.4, 35° C.) [h]	Structure (SMILES)
Minutes			C=CC(=O)OCCOC(=O)C=C [EDA, ethylene glycol diacrylate]
Hours			C=CC(=O)NC(O)C(O)NC(=O)C=C (centres unmarked) [DHEBA, N,N′-(1,2-dihydroxyethylene)bisacrylamide]
Minutes	0.72	144	C=CC(=O)NCCOC(C)(C)OCCNC(=O)C=C [DK, N-[2-[2-[2-(prop-2-enoylamino)ethoxy]propan-2-yloxy]ethyl]prop-2-enamide]
Hours			C=CCNC(=O)C(O)C(O)C(=O)NCC=C (centres unmarked) [DATD, N—N′-diallyltartardiamide]
Minutes			C=CC(=O)NCCOCCOC(C)(C)OCCOCCNC(=O)C=C [DOK, N,N′-(7,7-dimethyl-3,6,8,11-tetraoxatridecane-1,13-diyl)diacrylamide]
Minutes			C=CC(=O)NCCSSCCNC(=O)C=C [BAC, N,N′-bis(acryloyl)cystamine]
